Measured values as given in the supplement of paper PMC13380429.
± gives the standard deviation of the averaged measurements.

Key:
Details in all cases: 72 h
U2OS [1] = experiment: relative viability EC50 (midpoint between 100% and the lowest measured viability); higher = less toxic
Caco-2 [2] = experiment: as above
HepG2 [3] = experiment: as above
Calu-3 [4] = experiment: as above
U2OS [5] = experiment: drug sensitivity score (DSS) for viability; higher = more toxic; extreme values may be limits of the assay
Caco-2 [6] = experiment: as above
HepG2 [7] = experiment: as above
Calu-3 [8] = experiment: as above
U2OS [9] = experiment: cell viability relative to DMSO; higher = less toxic
Caco-2 [10] = experiment: as above
HepG2 [11] = experiment: as above
Calu-3 [12] = experiment: as above
Vero E6 [13] = experiment: relative viability EC50 (midpoint between 100% and the lowest measured viability); higher = less toxic
Vero E6 [14] = experiment: drug sensitivity score (DSS) for viability; higher = more toxic; extreme values may be limits of the assay
Vero E6 [15] = experiment: cell viability relative to DMSO; higher = less toxic

Compound	relative viability EC50 (U2OS [1]) [µM]	relative viability EC50 (Caco-2 [2]) [µM]	relative viability EC50 (HepG2 [3]) [µM]	relative viability EC50 (Calu-3 [4]) [µM]	drug sensitivity score (U2OS [5])	drug sensitivity score (Caco-2 [6])	drug sensitivity score (HepG2 [7])	drug sensitivity score (Calu-3 [8])	cell viability (U2OS [9]; 1 nM) [%]	cell viability (U2OS [9]; 10 nM) [%]	cell viability (U2OS [9]; 100 nM) [%]	cell viability (U2OS [9]; 1000 nM) [%]	cell viability (U2OS [9]; 10000 nM) [%]	cell viability (Caco-2 [10]; 1 nM) [%]	cell viability (Caco-2 [10]; 10 nM) [%]	cell viability (Caco-2 [10]; 100 nM) [%]	cell viability (Caco-2 [10]; 1000 nM) [%]	cell viability (Caco-2 [10]; 10000 nM) [%]	cell viability (HepG2 [11]; 1 nM) [%]	cell viability (HepG2 [11]; 10 nM) [%]	cell viability (HepG2 [11]; 100 nM) [%]	cell viability (HepG2 [11]; 1000 nM) [%]	cell viability (HepG2 [11]; 10000 nM) [%]	cell viability (Calu-3 [12]; 1 nM) [%]	cell viability (Calu-3 [12]; 10 nM) [%]	cell viability (Calu-3 [12]; 100 nM) [%]	cell viability (Calu-3 [12]; 1000 nM) [%]	cell viability (Calu-3 [12]; 10000 nM) [%]	relative viability EC50 (Vero E6 [13]) [µM]	drug sensitivity score (Vero E6 [14])	cell viability (Vero E6 [15]; 1 nM) [%]	cell viability (Vero E6 [15]; 10 nM) [%]	cell viability (Vero E6 [15]; 100 nM) [%]	cell viability (Vero E6 [15]; 1000 nM) [%]	cell viability (Vero E6 [15]; 10000 nM) [%]
CC(C)C[C@@H](NC(=O)[C@H](Cc1ccccc1)NC(=O)CNC(=O)[C@@H](C)NC(=O)[C@@H](N)Cc1ccc(O)cc1)C(=O)O [BW-180C]	> 10	> 10	> 10	> 10	0	0	0	0	99.4	97.8	104	104	99.1	113	96.9	98.6	102	101	105	98.4	99.4	102	100	97.6	94.5	91.1	100	89.4							
NCCCC[C@H](N[C@@H](CCc1ccccc1)C(=O)O)C(=O)N1CCC[C@H]1C(=O)O [lisinopril]	> 10			> 10	0			0	102	95.7	95	97	97.2											109	94.7	110	98.8	93.4	> 10	0	104	105	102	101	99.2
COC[C@@H](c1ccc(C(F)(F)F)cc1)N1CCN(C2(C)CCN(C(=O)c3c(C)ncnc3C)CC2)C[C@@H]1C [vicriviroc]	> 10		> 10	> 10	0		0.2	0	100	94.2	95	96.6	95						98.8	101	98.9	101	84.8	106	93.6	104	96.6	104	> 10	0	95.3	97	89.9	95.7	94.7
Cn1nccc1Nc1nccc(-c2ccn([C@H](CO)c3ccc(Cl)c(F)c3)c(=O)c2)n1 [GDC-0994]	> 10	> 10	0.119	> 10	0	3.15 ± 2.6	14.5 ± 0.28	0	96.9 ± 0.14	101.3 ± 0.99	92.2 ± 3.8	97.4 ± 0.85	96.8 ± 2.9	97.6 ± 3.7	98.4 ± 3.1	87.8 ± 2.5	82.4 ± 5.8	79.9 ± 6.7	106.8 ± 0.57	96.8 ± 3	74.8 ± 3.2	38.2 ± 1.2	40.6 ± 3.4	99.2 ± 6.9	103 ± 3	97.9 ± 7.3	96.45 ± 0.78	110 ± 4.3		2.6 ± 0.28	104 ± 7.4	101 ± 3.4	101 ± 5.4	87.75 ± 0.35	70.9 ± 5.8
c1ccc(CNCc2ccc(CN3CCCNCCNCCCNCC3)cc2)nc1 [AMD-3465]	> 10	> 10	> 10	> 10	0	0	0	0	102	99.3	101	99	103	105	100	102	100	96.2	102	101	101	103	97.3	102	97.5	94.1	101	115							
CC(=O)NC1N=C(c2ccccc2)c2ccccc2NC1=O (stereo not given)	> 10	> 10		> 10	0	0		0	101	94.6	95.5	95.3	96.9	103	97.7	93.9	101	103						112	101	101	101	95.1	> 10	0	98.5	96.5	99	93.7	108
CCCCCCCCCCCCCCCc1cccc(OCC(=O)NCCO)c1 [PDP-EA]		> 10	> 10	> 10		0	0	0						105	109	98.2	109	109	102	113	95.6	115	103	102	87.2	94.9	91.5	91.7							
CN(C)CCOC(c1ccccc1)c1ccccc1 [diphenhydramine]	> 10	> 10	> 10	> 10	0	0	0.2	0	102	103	104	96.5	102	100	93.9	96.1	91.8	128	97.8	93.3	95.3	103	84.4	97.5	104	114	112	105							
O=C1c2c(O)cccc2C([C@@H]2O[C@H](CO)[C@@H](O)[C@H](O)[C@H]2O)c2cc(CO)cc(O)c21 (stereo not given in full) [aloin]	> 10	> 10	> 10	> 10	0	0	0	0	96.9	100	92.9	97.4	92.7	92.1	104	96.6	93.9	99.4	106	94.1	103	94.7	103	104	95.7	103	104	97.3							
CCCOc1ccc(Br)cc1-c1cc(-c2ccc(Cl)cc2)[nH]c1-c1ccncc1	> 10	> 10		> 10	0	0.2	1.5	0	104	106	104	97.5	98.6	95.3	95.3	93.6	100	84.8	104	97.7	96.1	101	65.9	99.6	96.3	103	94.2	103	> 10	0.4	95.6	102	99.7	98	85.7
CC1=C(CC(=O)O)c2cc(F)ccc2/C1=C\c1ccc(S(C)(=O)=O)cc1 [exisulind]	> 10	> 10		> 10	0	2.2	1.5	0	103	94.7	100	97.5	100	96.4	104	91.6	84.6	94.8	106	95.3	95.4	96.7	74.8	95.6	102	103	97.6	112	> 10	0	104	96.2	87.8	110	94.8
O=C(O)c1ccc2nc(-c3cc(Cl)cc(Cl)c3)oc2c1 [tafamidis-meglumine]	> 10	> 10	> 10	> 10	0	0	0	0	100	101	101	97.6	100	103	88	102	90.2	103	103	102	99.5	99.6	96	97.6	95.8	94.7	93.1	99.2							
COC(=O)/C=C/C(=O)OCCN1C(=O)CCC1=O [diroximel-fumarate]	> 10	> 10		> 10	0	0	1.8	0	101	101	105	103	98.9	109	104	107	97.6	92.4	103	115	87.7	115	52.1	112	112	120	92.5	123	> 10	0	98.4	102	92.2	99	106
CN(C)C(=O)COC(=O)Cc1ccc(OC(=O)c2ccc(NC(=N)N)cc2)cc1 [camostat-mesilate]	> 10	> 10		> 10	0	0		0	97.8	102	94.2	104	102	102	98.9	104	105	108						100	106	98.2	110	103	> 10	0	110	99.7	101	103	106
O[C@H]1CC[C@H](Nc2ncc3nc(Nc4c(F)cc(F)cc4F)n([C@H]4CCOC4)c3n2)CC1 [CC-930]	> 10	> 10	> 10	> 10	0	0.4	0	1.6	97.3	104	95	96.7	91.1	99.1	102	102	96.7	86.1	104	102	93.5	97.1	89.6	101	100	104	87.5	81.7		2	98.5	97	98.3	93.7	73.4
COc1cc2c(cc1OC)C(c1ccc(N)cc1)=NNC(=O)C2 [CFM-2]	> 10	> 10		> 10	0	0	0.8	0	97.1	98.2	95.4	95.5	87.1	93.1	102	98.7	95.5	98	109	97.2	104	113	71	95.5	100	98.3	112	101	> 10	0	98.7	93.8	96.6	96.1	100
